How the values were obtained:
CYP2A6 = target: T1, CYP2A6 (Homo sapiens, UniProt P11509); assay: CYP inhibition in liver microsomes (coumarin); conditions: CYP 2A6; marker substrate coumarin; liver microsomes
T1 sequence (P11509 1-494): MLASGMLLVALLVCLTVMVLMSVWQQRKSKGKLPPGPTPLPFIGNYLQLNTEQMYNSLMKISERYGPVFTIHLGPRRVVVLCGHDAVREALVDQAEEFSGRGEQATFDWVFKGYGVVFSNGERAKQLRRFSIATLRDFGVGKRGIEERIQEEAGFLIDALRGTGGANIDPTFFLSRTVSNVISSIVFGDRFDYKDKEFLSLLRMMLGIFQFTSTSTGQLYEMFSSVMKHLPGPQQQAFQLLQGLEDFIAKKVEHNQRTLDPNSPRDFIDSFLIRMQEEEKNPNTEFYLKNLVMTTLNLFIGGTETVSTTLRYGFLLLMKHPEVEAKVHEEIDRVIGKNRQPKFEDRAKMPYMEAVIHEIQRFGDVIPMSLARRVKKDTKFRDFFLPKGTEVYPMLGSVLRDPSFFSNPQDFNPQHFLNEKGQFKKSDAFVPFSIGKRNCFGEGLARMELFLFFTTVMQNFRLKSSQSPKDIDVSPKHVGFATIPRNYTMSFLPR
Method: (§1) A liver microsome working solution (20 mg/mL) contained potassium phosphate buffer (0.1 M, pH 7.4), hepatic microsomes and marker substrate solution, which phenacetin, diclofenic acid, S-mephenytoinwer, dextromethorphan, midazolam, coumarin and chlorzoxazone used as substrates for […], CYP2C9, CYP2C19, CYP2D6, CYP3A4/5, CYP2A6 and CYP2E1, respectively. In brief, 238.5 µL of liver microsome working solution was placed in a 1 mL EP tube. […] The reaction was started by injecting NADPH (1 mM), and the resulting mixture was incubated at 37 °C for 10 min. After centrifuging at 4000 rpm for 15 min, the supernatant was transferred and analyzed using LC-MS/MS to detect the corresponding metabolites. Each incubation was conducted in triplicate (n = 3).
(§2) An API 4000 LC/tandem mass spectrometry was used to analyze the concentration of metabolites of various chemical agents using a validated mode. An Atlantis T3 column (2.1 mm × 50 mm, 5 μm) was utilized, employing mobile phases consisting of a 0.1% formic acid solution (A) and a 0.1% acetonitrile formate solution (B). […] As for the detection of CYP 2E1 metabolite, the Flow composition was as follows: 0–0.30 min, 10% B; 0.30–1.30 min, 10–55% B; 1.30–1.50 min, 55–95% B; 1.50–2.00 min, 95% B; 2.00–2.01 min, 95–10% B; the low rate was 0.85 mL/min. ESI was conducted in positive ion mode. MRM was utilized to quantify each metabolite, detecting the following transitions: m/z 152.1/110 for acetaminophen, 312.1/230.0 for 4′-Hydroxydiclofenac, 235.0/150.0 for 4′-hydroxymephentoin, 258.2/199.1 for Dextrorphan, 342.1/203.0 for 1′-hydroxymidazolam, 161.1/133.1 for hydroxycoumarin, and 184.0/120.0 for 6-hydroxyclozoxadone.

CYP1A2 = target: T2, CYP1A2 (Homo sapiens, UniProt P05177); assay: CYP inhibition in liver microsomes (phenacetin); conditions: CYP 1A2, marker substrate phenacetin
T2 sequence (P05177 1-516): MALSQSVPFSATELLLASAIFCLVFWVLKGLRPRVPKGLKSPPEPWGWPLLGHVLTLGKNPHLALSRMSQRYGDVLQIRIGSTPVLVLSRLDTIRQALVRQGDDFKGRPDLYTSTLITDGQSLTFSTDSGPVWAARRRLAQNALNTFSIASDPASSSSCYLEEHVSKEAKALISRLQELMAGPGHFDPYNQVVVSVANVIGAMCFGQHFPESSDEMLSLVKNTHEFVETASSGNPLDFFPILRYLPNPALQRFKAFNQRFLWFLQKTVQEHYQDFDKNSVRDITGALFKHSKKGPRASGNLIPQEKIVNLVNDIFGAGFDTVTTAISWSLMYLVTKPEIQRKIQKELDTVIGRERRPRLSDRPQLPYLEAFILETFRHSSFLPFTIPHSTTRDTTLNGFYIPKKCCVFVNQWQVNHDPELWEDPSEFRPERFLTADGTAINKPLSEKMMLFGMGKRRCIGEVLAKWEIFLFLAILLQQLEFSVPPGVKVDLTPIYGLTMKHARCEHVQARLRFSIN
Method: as §1, §2

CYP3A4/5 = assay: CYP inhibition in liver microsomes (midazolam); conditions: human, microsomes, pH 7.4
Method: as §1, §2

CYP2C9 = CYP2C9 (Homo sapiens, UniProt P11712); assay: CYP inhibition in liver microsomes (diclofenac); conditions: CYP 2C9, marker substrate diclofenac
Chain of CYP2C9 (P11712 whole entry): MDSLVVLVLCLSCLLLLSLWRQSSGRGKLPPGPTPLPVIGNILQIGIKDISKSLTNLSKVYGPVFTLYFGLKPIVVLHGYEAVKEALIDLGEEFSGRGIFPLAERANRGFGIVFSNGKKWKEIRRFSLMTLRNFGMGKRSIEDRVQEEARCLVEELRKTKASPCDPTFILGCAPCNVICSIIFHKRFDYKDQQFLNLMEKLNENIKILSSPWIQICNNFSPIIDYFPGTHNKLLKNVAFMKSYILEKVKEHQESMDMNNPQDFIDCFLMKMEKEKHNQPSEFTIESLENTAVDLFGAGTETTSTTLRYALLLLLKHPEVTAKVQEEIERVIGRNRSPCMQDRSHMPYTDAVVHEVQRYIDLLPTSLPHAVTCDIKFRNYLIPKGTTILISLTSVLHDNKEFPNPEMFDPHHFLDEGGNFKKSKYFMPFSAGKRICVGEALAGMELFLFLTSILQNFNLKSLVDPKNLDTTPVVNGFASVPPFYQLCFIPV
Method: as §1, with “After centrifuging at 4000 rpm for 15 min, the supernatant was transferred and analyzed using LC-MS/MS to detect the corresponding metabolites.” left out
An API 4000 LC/tandem mass spectrometry was used to analyze the concentration of metabolites of various chemical agents using a validated mode. An Atlantis T3 column (2.1 mm × 50 mm, 5 μm) was utilized, employing mobile phases consisting of a 0.1% formic acid solution (A) and a 0.1% acetonitrile formate solution (B). […] ESI was conducted in positive ion mode.

[1] = Stereoselective pharmacokinetics in rat plasma; assay type: in vivo, Sprague–Dawley rats
Method: The pharmacokinetic data were optimally characterized by a noncompartmental model. The mean concentration-time profiles for the farrerol enantiomers are illustrated in Figure 3, along with the corresponding key pharmacokinetic parameters presented in Table 2.
Twenty-five rats were randomly divided into five experimental groups (A, B, C, D, and E). Groups A and B received farrerol racemate via intragastric administration at doses of 150 mg/kg and 75 mg/kg, respectively. Group C was administered 4 mg/kg of farrerol racemate through caudal intravenous administration. […] Blood samples (300 μL) were obtained from the orbital venous plexus into heparinized tubes at various time points: 0.25, 0.5, 1, 2, 3, 5, 7, 9, 12, and 24 h following gavage administration, and at 0.083, 0.167, 0.25, 0.5, 1, 1.5, 2, 2.5, 3, and 5 h post-intravenous administration. Plasma was separated by centrifugation (3000 rpm, 10 min) and stored at −80 °C until analysis.
A total of 150 μL of plasma and 50 μL of the internal standard solution were added to a 1.5 mL EP tube and mixed using a vortex for 30 s. Subsequently, 500 μL of ether was introduced, and the mixture was vortexed for 5 min. Following centrifugation at 10,000 rpm for 10 min, the resulting organic layer was carefully transferred to a separate tube. Each sample underwent two extraction processes. The resulting ether layer was then evaporated to dryness using a continuous air stream at room temperature. A 250 μL aliquot of methanol was employed to re-dissolve the residue, utilizing vortex mixing for 2 min. Following centrifugation at 14,000 rpm for 10 min, the supernatant was subsequently injected into the HPLC-MS system for analysis.
(§3) Stereoselective chromatographic analysis of farrerol enantiomers was conducted utilizing an ACQUITY UPLC I-Class UPLC system (Waters, Milford, MA, USA), which is equipped with a quaternary pump and an autosampler. The chiral separation was carried out employing a Chiralpak OJ-RH column (250 mm × 4.6 mm, 5 μm), which was obtained from Daicel Chemical Industries (Shanghai, China). The mobile phase consisted of ACN-H2O (60:40, v/v), and the constant flow rate was 0.5 mL/min. The column temperature was set at 25 °C, and the injection volume was 10 μL.
(§4) Mass detection was conducted using a triple quadrupole mass spectrometer (Waters Co., USA) equipped with an electrospray ionization (ESI) source. The detection of enantiomers and internal standards (IS) was carried out in multiple reaction monitoring (MRM) mode utilizing negative ionization. The m/z 299→179 for enantiomers and m/z 267→252 for IS were selected as detecting ions for quantitation. The collision energies (CE) were established at 22 eV and 20 eV, respectively. The primary mass spectrometry (MS) parameters were configured as follows: capillary voltage was set to 3.5 kV, ion source temperature was maintained at 150 °C, desolvation gas flow rate was 800 L/h, and the cone voltage (CV) was adjusted to 1.3 V.
(§5) Pharmacokinetic analysis was conducted utilizing the Drug and Statistics (DAS) 2.0 software provided by the Chinese Pharmacological Society. To assess the differences in pharmacokinetic parameters, the IC50 values of the evaluated CYP enzymes and the permeability coefficients between the two farrerol enantiomers, paired sample t-tests and independent sample t-tests were performed. Statistical significance was defined as * p < 0.05 and ** p < 0.01. All results are presented as mean values ± standard deviation (SD).

[2] = Stereoselective pharmacokinetics in rat liver tissue; assay type: in vivo, Sprague–Dawley rats; conditions: rat liver tissue; i.g. 40 mg/kg racemate, within 24 h
Method: (§6) Forty-two rats were divided randomly into seven groups (6 rats per time point at 0.5, 1, 2, 4, 8, 12, and 24 h) and were orally administered farrerol racemate at a dose of 40 mg/kg. Rats from each group were euthanized, and kidney and liver tissues were subsequently obtained. After washing three times using 0.9% sodium chloride solution, the attached blood and fat tissues were removed. Afterward, 0.5 g of the precisely weighed liver and kidney tissues were added to 1 mL 0.9% sodium chloride solution and homogenized in an ice bath. Subsequently, 150 µL of supernatant was transferred into a 2.0 mL EP tube for pre-treatment, in the same way as the pretreatment of plasma samples (see Section 3.4.1).
as §3, §4, §5

[3] = Stereoselective pharmacokinetics in rat kidney tissue; assay type: in vivo, Sprague–Dawley rats; conditions: rat kidney tissue; i.g. 40 mg/kg racemate, within 24 h
Method: as §6, §3, §4, §5

## N[C@@H]1C[C@H]1c1ccccc1 (racemic) [Tranylcypromine, reference compound]
CYP2A6
  IC50: 383 nM

## O=c1cc(-c2ccccc2)oc2ccc3ccccc3c12 [β-naphthoflavone, reference compound]
CYP1A2
  IC50: 129 nM

## CC(=O)N1CCN(c2ccc(OCC3COC(Cn4ccnc4)(c4ccc(Cl)cc4Cl)O3)cc2)CC1 (stereo not drawn) [ketoconazole, reference compound]
CYP3A4/5
  IC50 at 10 min: 10.4 nM

## Nc1ccc(S(=O)(=O)Nc2ccnn2-c2ccccc2)cc1 [sulfaphenazole, reference compound]
CYP2C9
  IC50: 219 nM

## Cc1c(O)c(C)c2c(c1O)C(=O)CC(c1ccc(O)cc1)O2 (racemic) [racemic farrerol, 2,3-dihydro-5,7-dihydroxy-2-(4-hydroxyphenyl)-6,8-dimethyl-4-benzopyrone]
[1]; intravenous administration of racemate
  enantiomeric fraction (EF) = E(+)/(E(+)+E(−)): around 0.7
[1]; oral administration of racemate (all doses)
  enantiomeric fraction (EF) = E(+)/(E(+)+E(−)): greater than 0.6
[1]; oral dose of 75 mg/kg, approximately 1.5 to 24 h
  enantiomeric fraction (EF) = E(+)/(E(+)+E(−)): around 0.8
[2]
  enantiomeric fraction (EF) = E(+)/(E(+)+E(−)): less than 0.5
[3]
  enantiomeric fraction (EF) = E(+)/(E(+)+E(−)): less than 0.5

Reference: article PMC12073438, “Stereoselectivity of In Vivo Processes and Bioactivity of Farrerol Enantiomers” (Molecules, 2025)
